In PubChem BioAssay (NCI):
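Method: 48-hour compound exposure of cells in 96-well plates, five concentrations, linear interpolation of endpoints. TGI denotes the concentration required for complete inhibition of growth.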

How the values were obtained:
Assay in all cases: NCI anticancer screen, dose series, 48 h
786-0 renal = tested on: 786-0 renal
A549 NSCLC = tested on: A549 NSCLC
ACHN renal = tested on: ACHN renal
BT-549 breast = tested on: BT-549 breast
CAKI-1 renal = tested on: CAKI-1 renal
CCRF-CEM leukemia = tested on: CCRF-CEM leukemia
COLO 205 colon = tested on: COLO 205 colon
DU-145 prostate = tested on: DU-145 prostate
EKVX NSCLC = tested on: EKVX NSCLC
HCC-2998 colon = tested on: HCC-2998 colon
HCT-116 colon = tested on: HCT-116 colon
HCT-15 colon = tested on: HCT-15 colon
HL-60(TB) leukemia = tested on: HL-60(TB) leukemia
HOP-62 NSCLC = tested on: HOP-62 NSCLC
HOP-92 NSCLC = tested on: HOP-92 NSCLC
HS 578T breast = tested on: HS 578T breast
HT29 colon = tested on: HT29 colon
IGROV1 ovarian = tested on: IGROV1 ovarian
K-562 leukemia = tested on: K-562 leukemia
KM12 colon = tested on: KM12 colon
LOX IMVI melanoma = tested on: LOX IMVI melanoma
M14 melanoma = tested on: M14 melanoma
MALME-3M melanoma = tested on: MALME-3M melanoma
MCF7 breast = tested on: MCF7 breast
MDA-MB-231 breast = tested on: MDA-MB-231 breast
MDA-MB-435 = tested on: MDA-MB-435
MDA-N = tested on: MDA-N
MOLT-4 leukemia = tested on: MOLT-4 leukemia
NCI-H226 lung = tested on: NCI-H226 lung
NCI-H23 lung = tested on: NCI-H23 lung
NCI-H460 lung = tested on: NCI-H460 lung
NCI-H522 lung = tested on: NCI-H522 lung
NCI/ADR-RES ovarian = tested on: NCI/ADR-RES ovarian
OVCAR-3 ovarian = tested on: OVCAR-3 ovarian
OVCAR-4 ovarian = tested on: OVCAR-4 ovarian
OVCAR-5 ovarian = tested on: OVCAR-5 ovarian
OVCAR-8 ovarian = tested on: OVCAR-8 ovarian
PC-3 prostate = tested on: PC-3 prostate
RPMI-8226 leukemia = tested on: RPMI-8226 leukemia
RXF 393 renal = tested on: RXF 393 renal
SF-268 CNS = tested on: SF-268 CNS
SF-295 CNS = tested on: SF-295 CNS
SF-539 CNS = tested on: SF-539 CNS
SK-MEL-2 melanoma = tested on: SK-MEL-2 melanoma
SK-MEL-5 melanoma = tested on: SK-MEL-5 melanoma
SK-OV-3 ovarian = tested on: SK-OV-3 ovarian
SN12C renal = tested on: SN12C renal
SNB-19 CNS = tested on: SNB-19 CNS
SNB-75 CNS = tested on: SNB-75 CNS
SR leukemia = tested on: SR leukemia
SW-620 colon = tested on: SW-620 colon
T-47D breast = tested on: T-47D breast
TK-10 renal = tested on: TK-10 renal
U251 CNS = tested on: U251 CNS
UACC-257 melanoma = tested on: UACC-257 melanoma
UACC-62 melanoma = tested on: UACC-62 melanoma
UO-31 renal = tested on: UO-31 renal
A498 renal = tested on: A498 renal
SK-MEL-28 melanoma = tested on: SK-MEL-28 melanoma

O=Cc1c2ccccc2n2ccc3c4ccccc4[nH]c3c12
TGI (786-0 renal): > 10 µM | TGI (A549 NSCLC): > 10 µM | TGI (ACHN renal): > 10 µM | TGI (BT-549 breast): > 10 µM | TGI (CAKI-1 renal): > 10 µM | TGI (CCRF-CEM leukemia): > 10 µM | TGI (COLO 205 colon): > 10 µM | TGI (DU-145 prostate): > 10 µM | TGI (EKVX NSCLC): > 10 µM | TGI (HCC-2998 colon): > 10 µM | TGI (HCT-116 colon): > 10 µM | TGI (HCT-15 colon): > 10 µM | TGI (HL-60(TB) leukemia): > 10 µM | TGI (HOP-62 NSCLC): > 10 µM | TGI (HOP-92 NSCLC): > 10 µM | TGI (HS 578T breast): > 10 µM | TGI (HT29 colon): > 10 µM | TGI (IGROV1 ovarian): > 10 µM | TGI (K-562 leukemia): > 10 µM | TGI (KM12 colon): > 10 µM | TGI (LOX IMVI melanoma): > 10 µM | TGI (M14 melanoma): > 10 µM | TGI (MALME-3M melanoma): > 10 µM | TGI (MCF7 breast): > 10 µM | TGI (MDA-MB-231 breast): > 10 µM | TGI (MDA-MB-435): > 10 µM | TGI (MDA-N): > 10 µM | TGI (MOLT-4 leukemia): > 10 µM | TGI (NCI-H226 lung): > 10 µM | TGI (NCI-H23 lung): > 10 µM | TGI (NCI-H460 lung): > 10 µM | TGI (NCI-H522 lung): > 10 µM | TGI (NCI/ADR-RES ovarian): > 10 µM | TGI (OVCAR-3 ovarian): > 10 µM | TGI (OVCAR-4 ovarian): > 10 µM | TGI (OVCAR-5 ovarian): > 10 µM | TGI (OVCAR-8 ovarian): > 10 µM | TGI (PC-3 prostate): > 10 µM | TGI (RPMI-8226 leukemia): > 10 µM | TGI (RXF 393 renal): > 10 µM | TGI (SF-268 CNS): > 10 µM | TGI (SF-295 CNS): > 10 µM | TGI (SF-539 CNS): > 10 µM | TGI (SK-MEL-2 melanoma): > 10 µM | TGI (SK-MEL-5 melanoma): > 10 µM | TGI (SK-OV-3 ovarian): > 10 µM | TGI (SN12C renal): > 10 µM | TGI (SNB-19 CNS): > 10 µM | TGI (SNB-75 CNS): > 10 µM | TGI (SR leukemia): > 10 µM | TGI (SW-620 colon): > 10 µM | TGI (T-47D breast): > 10 µM | TGI (TK-10 renal): > 10 µM | TGI (U251 CNS): > 10 µM | TGI (UACC-257 melanoma): > 10 µM | TGI (UACC-62 melanoma): > 10 µM | TGI (UO-31 renal): > 10 µM

O=S1(=O)C(c2ccccc2)C(N2CCCCC2)C1C1CC2c3ccccc3C1c1ccccc12 (stereo not drawn)
TGI (786-0 renal): > 100 µM | TGI (A498 renal): > 100 µM | TGI (A549 NSCLC): > 100 µM | TGI (ACHN renal): > 100 µM | TGI (BT-549 breast): > 100 µM | TGI (CAKI-1 renal): > 100 µM | TGI (CCRF-CEM leukemia): > 24.3 µM | TGI (COLO 205 colon): > 100 µM | TGI (DU-145 prostate): > 100 µM | TGI (EKVX NSCLC): > 100 µM | TGI (HCT-116 colon): > 100 µM | TGI (HCT-15 colon): > 100 µM | TGI (HL-60(TB) leukemia): > 100 µM | TGI (HOP-62 NSCLC): > 100 µM | TGI (HOP-92 NSCLC): > 100 µM | TGI (HS 578T breast): > 100 µM | TGI (HT29 colon): > 100 µM | TGI (IGROV1 ovarian): > 100 µM | TGI (K-562 leukemia): > 100 µM | TGI (KM12 colon): > 100 µM | TGI (LOX IMVI melanoma): > 100 µM | TGI (M14 melanoma): > 100 µM | TGI (MALME-3M melanoma): > 100 µM | TGI (MCF7 breast): > 100 µM | TGI (MDA-MB-231 breast): > 100 µM | TGI (MDA-MB-435): > 100 µM | TGI (MDA-N): > 100 µM | TGI (MOLT-4 leukemia): > 100 µM | TGI (NCI-H226 lung): > 100 µM | TGI (NCI-H23 lung): > 100 µM | TGI (NCI-H460 lung): > 100 µM | TGI (NCI-H522 lung): > 100 µM | TGI (NCI/ADR-RES ovarian): > 100 µM | TGI (OVCAR-3 ovarian): > 100 µM | TGI (OVCAR-4 ovarian): > 100 µM | TGI (OVCAR-5 ovarian): > 100 µM | TGI (OVCAR-8 ovarian): > 100 µM | TGI (PC-3 prostate): > 100 µM | TGI (RPMI-8226 leukemia): > 100 µM | TGI (RXF 393 renal): > 100 µM | TGI (SF-268 CNS): > 100 µM | TGI (SF-295 CNS): > 100 µM | TGI (SF-539 CNS): > 100 µM | TGI (SK-MEL-2 melanoma): > 100 µM | TGI (SK-MEL-28 melanoma): > 100 µM | TGI (SK-MEL-5 melanoma): > 100 µM | TGI (SK-OV-3 ovarian): > 100 µM | TGI (SN12C renal): > 100 µM | TGI (SNB-19 CNS): > 100 µM | TGI (SNB-75 CNS): > 100 µM | TGI (SR leukemia): > 100 µM | TGI (SW-620 colon): > 100 µM | TGI (T-47D breast): > 100 µM | TGI (TK-10 renal): > 100 µM | TGI (U251 CNS): > 100 µM | TGI (UACC-257 melanoma): > 100 µM | TGI (UACC-62 melanoma): > 100 µM | TGI (UO-31 renal): > 100 µM

Cc1nc(-c2ccccc2)c(Cc2ccccc2O)c(=O)[nH]1
TGI (786-0 renal): > 100 µM | TGI (A498 renal): > 100 µM | TGI (A549 NSCLC): > 100 µM | TGI (ACHN renal): > 100 µM | TGI (BT-549 breast): > 100 µM | TGI (CAKI-1 renal): > 100 µM | TGI (CCRF-CEM leukemia): > 100 µM | TGI (COLO 205 colon): > 100 µM | TGI (DU-145 prostate): > 100 µM | TGI (EKVX NSCLC): > 100 µM | TGI (HCT-116 colon): > 100 µM | TGI (HCT-15 colon): > 100 µM | TGI (HL-60(TB) leukemia): > 100 µM | TGI (HOP-62 NSCLC): > 100 µM | TGI (HOP-92 NSCLC): > 100 µM | TGI (HS 578T breast): > 100 µM | TGI (HT29 colon): > 100 µM | TGI (IGROV1 ovarian): > 100 µM | TGI (K-562 leukemia): > 100 µM | TGI (KM12 colon): > 100 µM | TGI (LOX IMVI melanoma): > 100 µM | TGI (M14 melanoma): > 100 µM | TGI (MALME-3M melanoma): > 100 µM | TGI (MCF7 breast): > 100 µM | TGI (MDA-MB-231 breast): > 100 µM | TGI (MDA-MB-435): > 100 µM | TGI (MDA-N): > 100 µM | TGI (MOLT-4 leukemia): > 100 µM | TGI (NCI-H226 lung): > 100 µM | TGI (NCI-H23 lung): > 100 µM | TGI (NCI-H460 lung): > 100 µM | TGI (NCI-H522 lung): > 100 µM | TGI (NCI/ADR-RES ovarian): > 100 µM | TGI (OVCAR-3 ovarian): > 100 µM | TGI (OVCAR-4 ovarian): > 100 µM | TGI (OVCAR-5 ovarian): > 100 µM | TGI (OVCAR-8 ovarian): > 100 µM | TGI (PC-3 prostate): > 100 µM | TGI (RPMI-8226 leukemia): > 100 µM | TGI (RXF 393 renal): > 100 µM | TGI (SF-268 CNS): > 100 µM | TGI (SF-295 CNS): > 100 µM | TGI (SF-539 CNS): > 100 µM | TGI (SK-MEL-2 melanoma): > 100 µM | TGI (SK-MEL-28 melanoma): > 100 µM | TGI (SK-MEL-5 melanoma): > 100 µM | TGI (SK-OV-3 ovarian): > 100 µM | TGI (SN12C renal): > 100 µM | TGI (SNB-19 CNS): > 100 µM | TGI (SNB-75 CNS): 97.9 µM | TGI (SR leukemia): > 100 µM | TGI (SW-620 colon): > 100 µM | TGI (T-47D breast): > 100 µM | TGI (TK-10 renal): > 100 µM | TGI (U251 CNS): > 100 µM | TGI (UACC-257 melanoma): > 100 µM | TGI (UACC-62 melanoma): > 100 µM | TGI (UO-31 renal): > 100 µM
